Assays:
[1] = target: Delta-type opioid receptor (Homo sapiens, UniProt P41143); format: cell membranes, HEK293, Membrane; conditions: hek293; note: in other assays of this panel Not Active means under 50% inhibition at 10 µM
[2] = DRUGMATRIX: Sodium/nucleoside co-transporter radioligand binding (ligand: nitrobenzylthioinosine); format: cell membranes, Cavia porcellus, Dunkin-Hartley, Cerebral cortex, Membrane; conditions: Not Active = under 50% inhibition at 10 µM
[3] = DRUGMATRIX: Serotonin (5-Hydroxytryptamine) 5-HT3 radioligand binding (ligand: [3H] GR-65630); format: cell membranes, Membrane; conditions: hek293; Not Active = under 50% inhibition at 10 µM
[4] = target: Substance-P receptor (Homo sapiens, UniProt P25103); format: cell membranes, CHO, Membrane; conditions: cho; note: in other assays of this panel Not Active means under 50% inhibition at 10 µM
[5] = DRUGMATRIX: Purinergic P2X radioligand binding (ligand: [3H] alpha, beta-Methylene-ATP); format: cell membranes, Oryctolagus cuniculus, New Zealand albino, Urinary bladder, Membrane; conditions: Not Active = under 50% inhibition at 10 µM
[6] = target: T1, D(4) dopamine receptor (Homo sapiens, UniProt P21917); assay: DRUGMATRIX: Dopamine D4.2 radioligand binding (ligand: [3H] Spiperone); format: cell membranes, CHO-K1, Membrane; conditions: cho-k1; Not Active = under 50% inhibition at 10 µM
T1 sequence (P21917 whole entry): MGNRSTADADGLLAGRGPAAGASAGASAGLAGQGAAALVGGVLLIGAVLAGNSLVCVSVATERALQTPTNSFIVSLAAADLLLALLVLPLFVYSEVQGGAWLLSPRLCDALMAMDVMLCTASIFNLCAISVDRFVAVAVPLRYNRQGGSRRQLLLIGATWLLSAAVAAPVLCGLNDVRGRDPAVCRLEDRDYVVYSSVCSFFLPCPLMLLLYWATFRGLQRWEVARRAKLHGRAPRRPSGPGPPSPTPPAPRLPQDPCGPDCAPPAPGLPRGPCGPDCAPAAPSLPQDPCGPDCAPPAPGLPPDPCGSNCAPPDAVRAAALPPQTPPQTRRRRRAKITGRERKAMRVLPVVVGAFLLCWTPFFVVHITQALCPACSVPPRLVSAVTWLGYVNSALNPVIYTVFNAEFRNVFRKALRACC

[7] = target: Cannabinoid receptor 1 (Homo sapiens, UniProt P21554); format: cell membranes, Chem-1, Membrane; conditions: chem-1; note: in other assays of this panel Not Active means under 50% inhibition at 10 µM
[8] = target: T2, Polyunsaturated fatty acid lipoxygenase ALOX15 (Oryctolagus cuniculus, UniProt P12530); assay: biochemical; format: tissue-based, Reticulocytes; conditions: reticulocytes;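 note: inhibition of 15-lipoxygenase enzyme activity measured with linoleic acid as the substrate; in other assays of this panel Not Active means under 50% inhibition at 10 µM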
T2 sequence (P12530 whole entry): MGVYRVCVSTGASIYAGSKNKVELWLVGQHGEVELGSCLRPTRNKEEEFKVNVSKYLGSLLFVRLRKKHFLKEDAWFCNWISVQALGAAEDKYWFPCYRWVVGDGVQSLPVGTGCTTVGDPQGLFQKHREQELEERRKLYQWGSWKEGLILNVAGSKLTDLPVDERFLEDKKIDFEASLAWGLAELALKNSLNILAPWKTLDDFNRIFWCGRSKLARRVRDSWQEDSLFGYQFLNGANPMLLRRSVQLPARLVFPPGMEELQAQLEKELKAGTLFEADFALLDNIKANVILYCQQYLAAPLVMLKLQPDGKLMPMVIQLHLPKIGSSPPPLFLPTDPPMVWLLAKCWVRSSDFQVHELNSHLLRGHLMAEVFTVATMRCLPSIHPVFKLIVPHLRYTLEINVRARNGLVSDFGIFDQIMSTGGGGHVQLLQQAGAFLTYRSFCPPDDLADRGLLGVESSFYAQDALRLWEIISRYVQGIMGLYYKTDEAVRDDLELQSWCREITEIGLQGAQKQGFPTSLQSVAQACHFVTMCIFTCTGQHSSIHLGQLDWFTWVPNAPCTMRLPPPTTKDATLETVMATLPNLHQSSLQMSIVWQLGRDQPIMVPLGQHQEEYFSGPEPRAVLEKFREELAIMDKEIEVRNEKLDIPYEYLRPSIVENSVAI

Chain of Delta-type opioid receptor (P41143 whole entry): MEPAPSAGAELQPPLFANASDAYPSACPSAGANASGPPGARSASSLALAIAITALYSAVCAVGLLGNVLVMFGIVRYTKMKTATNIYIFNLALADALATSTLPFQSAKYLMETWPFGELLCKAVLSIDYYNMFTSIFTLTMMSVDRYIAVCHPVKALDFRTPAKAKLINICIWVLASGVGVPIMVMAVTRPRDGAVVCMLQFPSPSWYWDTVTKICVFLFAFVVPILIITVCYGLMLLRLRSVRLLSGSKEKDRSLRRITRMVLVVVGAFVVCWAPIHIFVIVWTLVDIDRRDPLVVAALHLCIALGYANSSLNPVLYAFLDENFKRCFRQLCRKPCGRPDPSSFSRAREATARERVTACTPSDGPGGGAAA
Chain of Cannabinoid receptor 1 (P21554 whole entry): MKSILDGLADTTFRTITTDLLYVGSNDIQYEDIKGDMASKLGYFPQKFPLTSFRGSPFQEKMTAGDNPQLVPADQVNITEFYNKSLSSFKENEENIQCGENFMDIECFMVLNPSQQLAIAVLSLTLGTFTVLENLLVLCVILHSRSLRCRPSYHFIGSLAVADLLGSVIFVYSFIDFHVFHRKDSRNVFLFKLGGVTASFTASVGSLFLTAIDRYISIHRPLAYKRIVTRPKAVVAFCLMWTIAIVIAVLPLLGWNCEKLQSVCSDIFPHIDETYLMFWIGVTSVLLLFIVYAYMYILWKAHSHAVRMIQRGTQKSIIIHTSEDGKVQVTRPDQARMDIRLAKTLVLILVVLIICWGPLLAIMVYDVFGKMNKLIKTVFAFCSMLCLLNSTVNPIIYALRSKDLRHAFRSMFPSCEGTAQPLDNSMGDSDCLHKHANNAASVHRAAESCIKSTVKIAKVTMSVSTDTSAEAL
Chain of Substance-P receptor (P25103 whole entry): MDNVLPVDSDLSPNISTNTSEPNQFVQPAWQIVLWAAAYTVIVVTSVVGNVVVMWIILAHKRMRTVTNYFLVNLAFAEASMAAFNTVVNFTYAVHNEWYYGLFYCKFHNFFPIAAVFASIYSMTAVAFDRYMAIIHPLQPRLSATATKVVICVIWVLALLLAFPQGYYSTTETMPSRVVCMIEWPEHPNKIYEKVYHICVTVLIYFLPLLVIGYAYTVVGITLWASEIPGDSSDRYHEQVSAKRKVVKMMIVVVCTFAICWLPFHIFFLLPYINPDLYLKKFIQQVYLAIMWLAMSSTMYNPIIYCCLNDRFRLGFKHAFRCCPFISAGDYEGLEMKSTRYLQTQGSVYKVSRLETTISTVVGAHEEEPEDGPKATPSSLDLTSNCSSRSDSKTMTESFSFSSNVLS

CCN(CC)CCNC(=O)c1ccc(N)cc1 [PROCAINAMIDE]
Not Active: IC50 [1] | IC50 [2] | Ki [2] | IC50 [3] | Ki [3] | IC50 [4] | IC50 [5] | Ki [5] | IC50 [6] | IC50 [7] | IC50 [8]

CCN(CC)CCCC(C)Nc1c2ccc(Cl)cc2nc2ccc(OC)cc12 (configuration not stated) [QUINACRINE]
Not Active: IC50 [1] | IC50 [2] | Ki [2] | IC50 [3] | Ki [3] | IC50 [4] | IC50 [5] | Ki [5] | IC50 [6] | IC50 [7] | IC50 [8]

C[C@]12C=CC(=O)C=C1CC[C@H]1[C@@H]3C[C@@H](O)[C@](O)(C(=O)CO)[C@@]3(C)C[C@H](O)[C@@]12F [TRIAMCINOLONE]
Not Active: IC50 [1] | IC50 [2] | Ki [2] | IC50 [3] | Ki [3] | IC50 [4] | IC50 [5] | Ki [5] | IC50 [6] | IC50 [7] | IC50 [8]

CC[C@]1(O)C[C@@H]2CN(CCc3c([nH]c4ccccc34)[C@@](C(=O)OC)(c3cc4c(cc3OC)N(C)[C@H]3[C@@](O)(C(N)=O)[C@H](O)[C@]5(CC)C=CCN6CC[C@]43[C@@H]65)C2)C1 [VINDESINE]
Not Active: IC50 [1] | IC50 [2] | Ki [2] | IC50 [3] | Ki [3] | IC50 [4] | IC50 [5] | Ki [5] | IC50 [6] | IC50 [7] | IC50 [8]

CCN(C(C)=O)c1cccc(-c2ccnc3c(C#N)cnn23)c1 [ZALEPLON]
Not Active: IC50 [1] | IC50 [2] | Ki [2] | IC50 [3] | Ki [3] | IC50 [4] | IC50 [5] | Ki [5] | IC50 [6] | IC50 [7] | IC50 [8]

COBALTOUS CHLORIDE
Not Active: IC50 [1] | Ki [1] | IC50 [2] | Ki [2] | IC50 [3] | Ki [3] | IC50 [4] | Ki [4] | IC50 [5] | Ki [5] | IC50 [6] | Ki [6] | IC50 [7] | Ki [7] | IC50 [8] | Ki [8]

COLISTIN
Not Active: IC50 [1] | Ki [1] | IC50 [2] | Ki [2] | IC50 [3] | Ki [3] | IC50 [4] | Ki [4] | IC50 [5] | Ki [5] | IC50 [6] | Ki [6] | IC50 [7] | Ki [7] | IC50 [8] | Ki [8]
